Laboratory results: ChEMBL document CHEMBL5104207, “Synthesis, biological evaluation and computational studies of pyrazole derivatives as Mycobacterium tuberculosis CYP121A1 inhibitors” (RSC Med Chem, 2022)
Calls of active or inactive are those of the source. No cut-off for these calls is given here.

Tested on: Mycobacterium tuberculosis
Experiment: Binding affinity to BTFA labelled recombinant Mycobacterium tuberculosis CYP121A1 C171S mutant assessed as change in chemical shift perturbation incubated for 15 mins by 19F NMR spectroscopy

| SMILES | Activity |
| --- | --- |
| CCOc1ccc(-c2nn(-c3ccc(Cl)cc3)cc2Cn2cncn2)cc1 | Active |
| COc1ccc(-c2nn(-c3ccc(F)cc3)cc2Cn2ccnc2)cc1 | Active |
| CC(C)Oc1ccc(-c2nn(-c3ccc(F)cc3)cc2Cn2ccnc2)cc1 | Active |
| COc1ccc(-c2nn(-c3ccc(Cl)cc3)cc2Cn2cncn2)cc1 | Active |
